Values after ≈ are worked out from the molar mass of the structure shown. Active and inactive are the calls of the source. The rule behind the calls is not given here.
Columns and labels:
[1] = Solubility of the compound in saline/solutol HS-15 (90/10% V/V) at pH 7.4; format: physicochemical
[2] = Cmax in ICR mouse at 45 mg/kg, po measured after 0.083 to 12 hrs by UPLC-MS/MS analysis; format: ADME, organism-based; set-up: dose 45 mg/kg, time upper 12 hrs, time lower 0.083 hrs, route po; conditions: in vivo
[3] = MRT (0 to t) in ICR mouse at 10 mg/kg, iv measured after 0.083 to 12 hrs by UPLC-MS/MS analysis; format: ADME, organism-based; conditions: in vivo, time 0.083-12 hrs
[4] = Toxicity in ICR mouse assessed as mortality at 45 mg/kg, po qd measured for 14 days; format: organism-based; conditions: in vivo, 336 h, time 14 day
[5] = target: Voltage-gated inwardly rectifying potassium channel KCNH2 (Homo sapiens, UniProt Q12809); assay: Inhibtion of hERG transfected in HEK293 cells by whole cell patch clamp method; format: toxicity, cell-based
[6] = Drug elimination in ICR mouse kidney at 100 mg/kg, ip measured for 1.5 hrs by UPLC-MS/MS analysis; format: ADME, organism-based; conditions: in vivo
[7] = Acute toxicity in ip dosed ICR mouse assessed as maximum tolerated dose; format: organism-based; conditions: in vivo
[8] = Hepatotoxicity in ICR mouse assessed as change in blood ALP level at 45 mg/kg, po by biochemical assay; format: toxicity, organism-based; conditions: in vivo
[9] = Renal toxicity in ICR mouse assessed as change in blood CREA level at 45 mg/kg, po by biochemical assay; format: organism-based; conditions: in vivo
[10] = MRT (0 to t) in ICR mouse at 45 mg/kg, po measured after 0.083 to 12 hrs by UPLC-MS/MS analysis; format: ADME, organism-based; conditions: in vivo, time 0.083-12 hrs
[11] = Hepatotoxicity in ICR mouse assessed as change in blood ALT level at 45 mg/kg, po by biochemical assay; format: toxicity, organism-based; conditions: in vivo
[12] = Toxicity in ICR mouse assessed as effect on lung at 45 mg/kg, po measured after 2 weeks by H and E staining based analysis; format: organism-based; conditions: in vivo, 336 h
[13] = Solubility of the compound in saline/solutol HS-15 (95/5% V/V) at pH 7.4; format: physicochemical
[14] = Cmax in ICR mouse at 10 mg/kg, iv measured after 0.083 to 12 hrs by UPLC-MS/MS analysis; format: ADME, organism-based; set-up: time 0.083-12 hrs, dose 10 mg/kg, route iv; conditions: in vivo
[15] = Solubility of the compound in PBS/DMSO (95/5% V/V) at pH 7.2 to 7.4; format: physicochemical
[16] = Toxicity in ICR mouse assessed as change in body weight at 45 mg/kg, po qd measured for 14 days; format: organism-based; conditions: in vivo, 336 h, time 14 day
[17] = Drug distribution in ICR mouse heart at 100 mg/kg, ip measured upto 0.5 hrs by UPLC-MS/MS analysis; format: ADME, organism-based; conditions: in vivo
[18] = Drug elimination in ICR mouse heart at 100 mg/kg, ip measured for 1.5 hrs by UPLC-MS/MS analysis; format: ADME, organism-based; conditions: in vivo
HepG2 [19] = assay: Antitumor activity against human HepG2 cells xenografted in BALB/c nude mouse assessed as reduction in tumor weight at 1 to 9 mg/kg, iv qd administered daily for 21 consecutive days measured on day 21; format: functional, organism-based; conditions: dose 1-9 mg/kg, time 21.0 day
[20] = Acute toxicity in po dosed ICR mouse assessed as maximum tolerated dose; format: organism-based; conditions: in vivo
[21] = Toxicity in ICR mouse assessed as effect on kidney at 45 mg/kg, po measured after 2 weeks by H and E staining based analysis; format: organism-based; conditions: in vivo, 336 h
[22] = Stability of the compound in absence of light of 100 lux measured of 3 days by HPLC analysis; format: physicochemical; conditions: 72 h; time 3 day
[23] = Renal toxicity in ICR mouse assessed as change in blood BUN level at 45 mg/kg, po by biochemical assay; format: organism-based; conditions: in vivo
[24] = Toxicity in ICR mouse assessed as mortality at 100 mg/kg, ip qd measured for 14 days; format: organism-based; conditions: in vivo, 336 h, time 14 day
HepG2 [25] = assay: Antitumor activity against human HepG2 cells xenografted in BALB/c nude mouse assessed as reduction in tumor weight at 45 mg/kg, po qd administered daily for 21 consecutive days and measured on day 21; format: functional, organism-based; conditions: time <= 21.0 day
[26] = Drug elimination in ICR mouse duodenum at 100 mg/kg, ip measured for 1.5 hrs by UPLC-MS/MS analysis; format: ADME, organism-based; conditions: in vivo
[27] = Drug elimination in ICR mouse spleen at 100 mg/kg, ip measured for 1.5 hrs by UPLC-MS/MS analysis; format: ADME, organism-based; conditions: in vivo
[28] = Stability of the compound in PBS at pH 4 to 9 measured at 25 degree C measured of 7 days by HPLC analysis; format: physicochemical; conditions: buffer, pH 4, 168 h; time 7 day
[29] = Drug distribution in ICR mouse liver at 100 mg/kg, ip measured upto 0.5 hrs by UPLC-MS/MS analysis; format: ADME, organism-based; conditions: in vivo
[30] = Drug elimination in ICR mouse lung at 100 mg/kg, ip measured for 1.5 hrs by UPLC-MS/MS analysis; format: ADME, organism-based; conditions: in vivo
[31] = AUC(0 to t) in ICR mouse at 10 mg/kg, iv measured after 0.083 to 12 hrs by UPLC-MS/MS analysis; format: ADME, organism-based; set-up: time upper 12 hrs, dose 10 mg/kg, time lower 0.083 hrs, route iv; conditions: in vivo
[32] = AUC (0 to t) in ICR mouse at 45 mg/kg, po measured after 0.083 to 12 hrs by UPLC-MS/MS analysis; format: ADME, organism-based; set-up: dose 45 mg/kg, time upper 12 hrs, time lower 0.083 hrs, route po; conditions: in vivo
[33] = Solubility of the compound in saline/PEG400 (95/5% V/V) at pH 7.4; format: physicochemical
[34] = Toxicity in ICR mouse assessed as effect on liver at 45 mg/kg, po measured after 2 weeks by H and E staining based analysis; format: organism-based; conditions: in vivo, 336 h
[35] = Toxicity in BALB/c mouse xenografted with human HepG2 cells assessed as change in body weight at 15 to 45 mg/kg, po qd at 45 mg/kg, po treated daily for 21 days measured every 3 days for 21 days; format: organism-based; conditions: in vivo, 504 h, dose 15-45 mg/kg, time 21 day
Bel-7402 = assay: Antiproliferative activity against human Bel-7402 cells by MTT assay; format: functional, cell-based
[36] = Toxicity in BALB/c mouse xenografted with human HepG2 cells assessed as adverse effect at 15 to 45 mg/kg, po qd at 45 mg/kg, po treated daily for 21 days measured every 3 days for 21 days; format: organism-based; conditions: in vivo, 504 h, dose 15-45 mg/kg, time 21 day
HepG2 [37] = assay: Antitumor activity against human HepG2 cells xenografted in BALB/c nude mouse assessed as tumor growth inhibition at 1 mg/kg, iv qd administered daily for 21 consecutive days and measured every 3 days upto 21 days relative to control; format: functional; conditions: HepG2, 504 h, time <= 21 day, read-out: TGI
[38] = Drug distribution in ICR mouse lung at 100 mg/kg, ip measured upto 0.5 hrs by UPLC-MS/MS analysis; format: ADME, organism-based; conditions: in vivo
[39] = Drug distribution in ICR mouse Spleen at 100 mg/kg, ip measured upto 0.5 hrs by UPLC-MS/MS analysis; format: ADME, organism-based; conditions: in vivo
[40] = Half life in ICR mouse at 45 mg/kg, po measured after 0.083 to 12 hrs by UPLC-MS/MS analysis; format: ADME, organism-based; conditions: in vivo, time 0.083-12 hrs
[41] = Solubility of the compound in saline/PEG400 (80/20% V/V) at pH 7.4; format: physicochemical

Sequence of Voltage-gated inwardly rectifying potassium channel KCNH2 (Q12809 whole entry): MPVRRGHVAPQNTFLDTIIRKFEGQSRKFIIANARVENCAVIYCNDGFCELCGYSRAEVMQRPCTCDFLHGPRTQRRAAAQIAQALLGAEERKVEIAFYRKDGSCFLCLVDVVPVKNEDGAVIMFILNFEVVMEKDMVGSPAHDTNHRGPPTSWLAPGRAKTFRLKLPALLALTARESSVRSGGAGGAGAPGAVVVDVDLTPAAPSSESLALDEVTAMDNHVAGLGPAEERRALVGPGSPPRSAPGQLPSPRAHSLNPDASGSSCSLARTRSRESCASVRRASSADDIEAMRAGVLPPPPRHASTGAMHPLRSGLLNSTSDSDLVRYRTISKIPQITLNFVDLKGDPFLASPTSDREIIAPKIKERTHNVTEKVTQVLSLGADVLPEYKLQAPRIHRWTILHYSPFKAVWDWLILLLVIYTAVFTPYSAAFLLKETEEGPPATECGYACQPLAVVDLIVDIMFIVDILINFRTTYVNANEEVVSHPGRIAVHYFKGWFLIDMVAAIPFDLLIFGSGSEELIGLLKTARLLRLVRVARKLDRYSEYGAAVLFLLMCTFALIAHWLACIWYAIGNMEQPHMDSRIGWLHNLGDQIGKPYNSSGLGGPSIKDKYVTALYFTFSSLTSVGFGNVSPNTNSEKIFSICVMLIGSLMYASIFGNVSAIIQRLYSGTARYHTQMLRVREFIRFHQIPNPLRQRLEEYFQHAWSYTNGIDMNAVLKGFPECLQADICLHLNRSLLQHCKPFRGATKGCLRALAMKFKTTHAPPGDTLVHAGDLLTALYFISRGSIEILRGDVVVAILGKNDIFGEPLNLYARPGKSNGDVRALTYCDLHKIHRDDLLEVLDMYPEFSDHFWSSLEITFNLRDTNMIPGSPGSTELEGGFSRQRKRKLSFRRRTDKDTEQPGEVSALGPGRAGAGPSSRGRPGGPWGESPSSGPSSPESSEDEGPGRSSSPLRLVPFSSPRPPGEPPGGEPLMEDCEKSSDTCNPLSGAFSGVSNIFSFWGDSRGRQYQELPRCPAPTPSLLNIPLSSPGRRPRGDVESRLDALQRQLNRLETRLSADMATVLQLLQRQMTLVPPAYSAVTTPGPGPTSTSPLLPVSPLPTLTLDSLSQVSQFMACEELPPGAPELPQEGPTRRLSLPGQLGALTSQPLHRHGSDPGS

Structure (SMILES): C[C@H]1CCC/C=C/[C@@H]2C[C@H](OC(=O)OCc3cccnc3)C[C@H]2[C@H](O)/C=C/C(=O)O1
- solubility [1]: 5000 µg/mL (≈ 12000 µM)
- Cmax [2]: 20.3 ng/mL
- MRT last [3]: 0.84 h
- Activity [4]: Non-Toxic
- IC50 [5]: > 30000 nM
- Drug excretion [6]: Active
- MTD [7]: > 100 mg/kg
- Activity [8]: Non-Toxic
- Activity [9]: Non-Toxic
- MRT last [10]: 2.92 h
- Activity [11]: Non-Toxic
- Activity [12]: Non-Toxic
- solubility [13]: 1000 µg/mL (≈ 2410 µM)
- Cmax [14]: 2060 ng/mL
- solubility [15]: < 1000 µg/mL
- Activity [16]: Non-Toxic
- Drug uptake [17]: Active
- Drug excretion [18]: Active
- Activity (HepG2 [19]): Active
- MTD [20]: > 750 mg/kg
- Activity [21]: Non-Toxic
- Stability [22]: Stable
- Activity [23]: Non-Toxic
- Activity [24]: Non-Toxic
- Activity (HepG2 [25]): Active
- Drug excretion [26]: Active
- Drug excretion [27]: Active
- Stability [28]: Stable
- Drug uptake [29]: Active
- Drug excretion [30]: Active
- AUC(0-t) [31]: 519 ng·h/mL
- AUC(0-t) [32]: 52.9 ng·h/mL
- solubility [33]: < 1000 µg/mL
- Activity [34]: Non-Toxic
- Activity [35]: Non-Toxic
- IC50 (Bel-7402): 70 nM
- Activity [36]: Non-Toxic
- inhibition in vivo at 1 mg/kg (HepG2 [37]): 36.6%
- Drug uptake [38]: Active
- Drug uptake [39]: Active
- half-life [40]: 7.35 h
- solubility [41]: < 1000 µg/mL

From ChEMBL document CHEMBL5113532, “Design and Characterization of a Natural Arf-GEFs Inhibitor Prodrug CHNQD-01255 with Potent Anti-Hepatocellular Carcinoma Efficacy In Vivo” (J Med Chem, 2022)
